Test results: patent publication US8741945B2, “Compounds” (Novacta Biosystems Limited, priority 2009, dated 2014)
Several values for one entry are separate records, joined by “and”; a condition that tells them apart may be missing. Identical values can stand only once.

How the values were obtained:
[1] = test system: Clostridium difficile strains; experiment: Susceptibility testing (MIC) by two-fold serial agar dilution, Wilkins-Chalgren Anaerobe agar, anaerobic; type: cell-based
Description: Susceptibility testing for Clostridium difficile strains was performed by two-fold serial antibiotic dilutions in Wilkins-Chalgren Anaerobe agar under anaerobic conditions. Vancomycin was included as a comparator drug. C. difficile cultures were inoculated onto pre-reduced Braziers (C.C.E.Y.) agar plates and grown at 37° C. for 48 hours under anaerobic conditions. Two to three colonies of the 48 hours cultures were inoculated into 5 ml of pre-reduced Schaedlers Broth and grown at 37° C. for 24 hours under anaerobic conditions. This culture was diluted with pre-reduced 0.9% NaCl to achieve the turbidity of the 0.5 McFarland standard and applied to the drug containing plates at a final inoculum of 10^5 cfu/spot. Drug-free growth control plates were included. The plates were incubated in the anaerobic chamber at 37° C. for 48 hours and examined for growth.

[2] = Stability to enzymatic digestion in simulated intestinal fluid (SIF); type: in vitro ADME; conditions: 37° C., HPLC quantification (FIG. 1)
Description: Nisin and the compound of Example 1 were tested for their susceptibility towards enzymatic digestion in the intestine using a simulated intestinal fluid (SIF). The SIF was based on the standard USP solutions for simulated intestinal fluids and its activity was confirmed against Bovine Serum Albumin (Hilger et al, Clin. Exp. Immunol. 2001, 123, 387-94). The compounds were incubated in SIF at 37° C. and their concentrations quantified by analytical HPLC (UV detection at 210 nm using the conditions outline in Table 1).

C. difficile strain 4013 = experiment: Hamster model of C. difficile associated cecitis (clindamycin induced); type: in vivo; conditions: three times daily at 10 mg/kg/day, 5-day dosing period, groups of 6
Description: The in vivo efficacy of the compounds of the invention in the treatment of C. difficile infections was evaluated in the standard animal model for CDAD, clindamycin induced cecitis in the hamster.
Groups of 6 animals were dosed with approximately 10^7 cells of C. difficile strain 4013 and 24 hours later with a subcutaneous dose of 10 mg/kg clindamycin phosphate. After a further 24 hours, the groups were then treated either with vehicle, vancomycin or with the compound of Example 1 three times daily at 10 mg/kg/day.

[3] = 7-day toxicity experiment in a rat model; type: in vivo
Description: The compound of Example 1 was tested in a 7-day toxicity experiment in a rat model. One study used 50 mg/kg/day of material administered intravenously for 7 days. The other study used 200 mg/kg/day of material administered orally for 7 days.

[4] = Tolerability in the Syrian hamster; type: in vivo; conditions: 50 mg/kg/day orally
[5] = 50 mg/kg/day intravenously for 7 days
[6] = 200 mg/kg/day orally for 7 days

In the case of CCC(C)[C@@H]1NC(=O)[C@@H]2NC(=O)[C@H](CC(C)C)NC(=O)[C@H](NC(=O)C3CSC[C@H](N)C(=O)N[C@@H](CO)C(=O)NCC(=O)N[C@@H](Cc4c[nH]c5ccccc45)C(=O)N[C@@H](C(C)C)C(=O)N3)[C@H](C)SC[C@H](NC(=O)[C@H](CCC(=O)O)NC1=O)C(=O)NCC(=O)N[C@@H]1C(=O)N[C@@H](CC(C)C)C(=O)N[C@@H](C(C)C)C(=O)N[C@@H](CS[C@H]2C)C(=O)N[C@@H](C)C(=O)N[C@H](C(=O)NCCCCCCCN)CS[C@H]1C (some centres unmarked) [Example 1, Deoxyactagardine B (7-amino-1-heptylamide monocarboxamide)], the MIC ([1]; C. diff strain 027Can, listed as Eg 1) is reported as 0.5, 0.5 μg/ml and 1, 1 μg/ml and 1 μg/ml and 0.5 μg/ml, the MIC ([1]; C. diff strain 027SM) is reported as 1, 1 μg/ml and the MIC ([1]; C. diff strain 630, listed as Eg 1) is reported as 0.5, 0.5 μg/ml and 0.5 μg/ml and 1 μg/ml and 1, 1 μg/ml. The MIC ([1]; C. diff strain 19126, listed as Eg 1) was 1, 1 μg/ml and 0.5 μg/ml and 1 μg/ml, the MIC ([1]; C. diff strain 37779, listed as Eg 1) was 1, 1 μg/ml and 1 μg/ml and 0.5 μg/ml and the MIC ([1]; C. diff strain B32) was 1, 1 μg/ml. The MIC ([1]; C. diff strain E16, listed as Eg 1) was 1 µg/mL and 2 µg/mL, the MIC ([1]; C. diff strain E101) was 1, 1 μg/ml and the MIC ([1]; C. diff strain P24) was 1, 1 μg/ml. For the same molecule, the MIC ([1]; C. diff strain P62, listed as Eg 1) was 2 µg/mL and 1 µg/mL, the “activity (MIC)” value ([1]; against many common strains of C. difficile) was ≤ 1 µg/mL and the “stability in SIF” value [2] was “essentially stable”. For the same molecule, the survival (C. difficile strain 4013) was “survived for the duration of the entire 5-day dosing period”, the necropsy [3, 5] was “no organ damage” and the toxicological effects [3, 5] was “No significant toxicological effects”. The necropsy [3, 6] was “no organ damage”, the toxicological effects [3, 6] was “No significant toxicological effects” and the tolerability [4] was “tolerated without obvious signs of toxicity”.
In the case of CN[C@H](CC(C)C)C(=O)N[C@H]1C(=O)N[C@@H](CC(N)=O)C(=O)N[C@H]2C(=O)N[C@H]3C(=O)N[C@H](C(=O)N[C@H](C(=O)O)c4cc(O)cc(O)c4-c4cc3ccc4O)[C@H](O)c3ccc(c(Cl)c3)Oc3cc2cc(c3O[C@@H]2O[C@H](CO)[C@@H](O)[C@H](O)[C@H]2O[C@H]2C[C@](C)(N)[C@H](O)[C@H](C)O2)Oc2ccc(cc2Cl)[C@H]1O [vancomycin, reference compound], the survival (C. difficile strain 4013) is reported as “survived for the duration of the entire 5-day dosing period”.
For “Deoxyactagardine B (3-amino-1-propylamide monocarboxamide) [Example 5]”, the MIC ([1]; C. diff strain 027SM) was 2, 2 μg/ml, the MIC ([1]; C. diff strain 630, listed as Eg 5) was 1, 1 μg/ml and 2, 2 μg/ml and the MIC ([1]; C. diff strain 19126, listed as Eg 5) was 2, 2 μg/ml and 1, 1 μg/ml. The MIC ([1]; C. diff strain 37779, listed as Eg 5) was 1, 1 μg/ml and 2, 2 μg/ml, the MIC ([1]; C. diff strain B32) was 2, 2 μg/ml and the MIC ([1]; C. diff strain E16, listed as Eg 5) was 1 µg/mL and 2 µg/mL. The MIC ([1]; C. diff strain E101) was 2, 2 μg/ml, the MIC ([1]; C. diff strain P24) was 2, 2 μg/ml and the MIC ([1]; C. diff strain P62) was 2, 2 μg/ml.
For “Deoxyactagardine B (12-amino-1-dodecylamide monocarboxamide) [Example 8]”, the MIC ([1]; C. diff strain 027Can) was 1, 1 μg/ml, the MIC ([1]; C. diff strain 027SM) was 2, 2 μg/ml and the MIC ([1]; C. diff strain 630, listed as Eg8) was 0.5, 0.5 μg/ml and 1, 1 μg/ml. For the same molecule, the MIC ([1]; C. diff strain 19126, listed as Eg8) was 1, 1 μg/ml and 2, 2 μg/ml, the MIC ([1]; C. diff strain 37779, listed as Eg8) was 1, 1 μg/ml and 1 μg/ml and 2 μg/ml and the MIC ([1]; C. diff strain B32, listed as Eg8) was 2 µg/mL and 1 µg/mL. The MIC ([1]; C. diff strain E16) was 2, 2 μg/ml, the MIC ([1]; C. diff strain E101) was 2, 2 μg/ml and the MIC ([1]; C. diff strain P24, listed as Eg8) was 2 µg/mL and 1 µg/mL. The MIC ([1]; C. diff strain P62) was 2, 2 μg/ml.
